Measured values reported in PMC12722308, “A phase 1 study of orally administered 5-fluoro-2’-deoxycytidine with tetrahydrouridine in patients with refractory solid tumors” (Cancer Chemotherapy and Pharmacology, 2025).

What was measured:
[1] = Urinary excretion by LC-MS/MS; assay type: in vivo, human
Protocol: Blood specimens for PK analysis were collected on Cycle 1 Day 1 (C1D1) prior to THU administration and then at 15, 30, and 45 min and 1, 2, 3, 4, 5, and 6 h after THU administration, as well as on C1D2 and C1D3 prior to and 2 h after THU administration. Urine specimens for PK analysis were collected on C1D1 prior to treatment and then at every void from 0 to 24 h after THU administration. All specimens for PK analysis were processed and analyzed by LC-MS/MS as described previously, and Phoenix WinNonlin software was used for data analysis.

[2] = test system: p16-expressing vimentin-positive (V+) CTCs; set-up: method as in PMID 32314030; details: intravenously administered FdCyd; 6 of 12; cited from earlier work
[3] = Phase 1 dose escalation: adverse events (CTCAE v4.0), DLT, MTD/RP2D; assay type: in vivo, human; details: orally once daily with 3000 mg THU on days 1–6 and 8–13 of each 21-day cycle (dose level 8)
Protocol: FdCyd and THU were supplied by the NCI Division of Cancer Treatment and Diagnosis. Patients were administered both drugs orally in 21-day cycles, and dose escalation proceeded according to a traditional 3 + 3 design as per the dose escalation schema shown in Supplementary Table S1. […] Patients maintained a study diary to note any side effects or concurrent medications. The NCI Common Terminology Criteria for Adverse Events version 4.0 was used to grade adverse events. Tumor response was assessed by radiography at baseline and every 2 cycles thereafter and evaluated per RECIST version 1.1 [11]. Following determination of the maximum tolerated dose (MTD)/recommended phase 2 dose (RP2D), an additional 13 patients were enrolled on a RP2D expansion cohort for assessments of pharmacodynamic biomarkers in baseline and on-treatment tumor biopsies.
DLTs were defined as toxicities that were at least possibly related to FdCyd or THU within the first cycle of treatment and met one of the following criteria: grade ≥ 3 non-hematological toxicity (including grade 3 nausea, vomiting, or diarrhea only if refractory to standard supportive care; grade 3 electrolyte toxicities only if unable to be corrected to ≤ grade 1 within 24 h; and tumor pain only if refractory to analgesics); grade 4 thrombocytopenia; or grade 4 neutropenia lasting ≥ 5 days or febrile neutropenia. […]

[4] = cited from earlier work
[5] = test system: p16-expressing cytokeratin-positive (CK+) CTCs; experiment: CellSearch analysis of CTC p16 expression, CK+ CTCs; assay type: in vivo, human; details: 23 of 30 evaluable patients; oral FdCyd + THU
Protocol: (§1) Each blood specimen for CTC analysis (7.5 mL) was collected into a 10-mL CellSave preservative tube (Menarini Silicon Biosystems). Specimens were collected pre-treatment and then 6 h after THU administration on C1D1; prior to THU administration on […] and either C1D8 or […] (at the end of the first round of drug administration); on day 1 of cycle 2 and all subsequent cycles; and optionally at time of progression. Blood sample collection for CTC analysis was performed relative to the morning dose of THU for patients on the BID dose levels (DL10-11). CTC samples were processed and analyzed for p16, cytokeratin, and vimentin as described previously. Serial baseline blood specimens (C1D1 pre, C1D1 post, and […]) were obtained in light of baseline variability in CTC counts and p16 expression, and patients were considered assessable for cytokeratin-positive (CK^+) CTC p16 response if at least one of these baseline specimens (i.e., C1D1 pre, C1D1 post, and/or […]) and at least one post-treatment specimen (collected C2D1 or later) each contained ≥ 6 CTCs, as described. For patients with multiple baseline specimens, the specimen with the highest frequency of p16-positive CTCs was considered “baseline,” as described.

[6] = test system: CDKN2A; experiment: Tumor CDKN2A promoter methylation from genome-wide methylation sequencing; assay type: in vivo, human; details: of 6 expansion cohort patients with both CDKN2A and p16 IHC data
Protocol: Tumor biopsy cores collected at baseline and C1W3 underwent nucleic acid extraction using the Qiagen AllPrep FFPE Nucleic acid Extraction kit and QiaCube automated platform. Extractions were performed on 1–2 biopsy cores per patient per time point; for specimens with low tumor content, tumor microdissection was performed prior to extraction. Genome-wide DNA methylation sequencing on the isolated DNA was performed by Zymo Research using Methyl-MiniSeq Genome-Wide Bisulfite Sequencing methodology. Sequence reads from bisulfite-treated Classic RRBS libraries were identified using standard Illumina base calling software. Raw FASTQ files were trimmed of adapter, filled-in nucleotides, and low-quality base calls using TrimGalore 0.6.4. […] Methylated and unmethylated read totals for each CpG site were called using Bismark Methylation Extractor. The methylation level of each sampled cytosine was estimated as the number of reads reporting a C, divided by the total number of reads reporting a C or T.
All statistical analyses were performed in R. Differentially methylated CpG sites (DMCs)—both hypo- and hyper-methylated—were identified with the R package DSS [14] using the two-sided Wald test for beta-binomial distributions with smoothing step as recommended. […] Regions with many significant DMCs were detected as differentially methylated regions (DMRs) using DSS function callDMR. […]

[7] = test system: p16-expressing vimentin-positive (V+) CTCs; experiment: CellSearch analysis of CTC p16 expression, V+ CTCs; assay type: in vivo, human; details: 2 of the 22 evaluable patients; oral FdCyd + THU
Protocol: as §1

[8] = test system: DNA methylation; set-up: method as in PMID 2425957; details: preclinical data; 1 µM = 245 ng/mL; cited from earlier work

Structure (SMILES): Nc1nc(=O)n([C@H]2C[C@H](O)[C@@H](CO)O2)cc1F [FdCyd, 5-fluoro-2’-deoxycytidine]
- FdCyd urinary excretion over 0-24 hours of day 1 ([1]; All FdCyd doses + THU 3000 mg, N=6, geom. mean (geom. SD)): 0.083 (2.2) % dose
- FdCyd urinary excretion over 0-24 hours of day 1 ([1]; All FdCyd doses + THU 6000 mg, N=3, geom. mean (geom. SD)): 0.11 (2.6) % dose
- FdCyd urinary excretion over 0-24 hours of day 1 ([1]; DL5-9: FdCyd 160 mg + THU 3000 mg, N=6, geom. mean (geom. SD)): 0.083 (2.2) % dose
- FdCyd urinary excretion over 0-24 hours of day 1 ([1]; DL10: FdCyd 60 mg + THU 6000 mg, N=2, geom. mean (geom. SD)): 0.15 (3.2) % dose
- FdCyd urinary excretion over 0-24 hours of day 1 ([1]; DL11: FdCyd 80 mg + THU 6000 mg, N=1): 0.058 (-) % dose
- Patients with increases in p16-expressing V+ CTCs [2]: 50%
- Maximum tolerated dose / RP2D, FdCyd dose [3]: 160 mg
- FdCyd bioavailability, previously established [4]: 10%
- FdCyd clearance, previous reports ([4]; intravenously administered FdCyd with THU, ref previous reports): 142 mL/min/m^2
- Patients with a treatment-associated increase in the proportion of p16+CK+ CTCs [5]: 77%
- Patients with treatment-associated decreases in tumor CDKN2A methylation [6]: Five
- Patients with increases in the proportion of p16-expressing V+ CTCs [7]: 9%
- FdCyd concentration giving inhibition of DNA methylation in vitro [8]: ≥ 1 µM
